The results in this text go back to patent publication US20240150365A1 (Hotspot Therapeutics, Inc., priority 2022, published 2024).

Read-outs that look alike come from different tables or passages of the source. A value given as a limit tells only on which side of the number the result lay.

The test system of one test is NF-kB. Description: NF-kB reporter assay in Jurkat cells stimulated with aCD3/aCD28/PMA. The class given is cell-based. To be noted: Homo sapiens, Jurkat, read-out: NF-kB Reporter Assay IC50. Put shortly: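 Stimulation used final aCD3 5 μg/mL, aCD28 5 μg/mL and PMA 0.03 μg/mL for 4 hr at 37° C, after 1 hr compound pretreatment of 25,000 serum-starved Jurkat cells per well. One-Glo luminescence gave IC50 values.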
A general note: Reporter assays use an easily measured gene product as a stand-in for the process of interest.

In another test the target is T1, MALT1 (Homo sapiens, UniProt Q9UDY8).
T1 construct: Avi-tagged FL MALT-1 (Pharmaron, stored at −70° C.); Avi tag
T1 sequence (Q9UDY8 1-824): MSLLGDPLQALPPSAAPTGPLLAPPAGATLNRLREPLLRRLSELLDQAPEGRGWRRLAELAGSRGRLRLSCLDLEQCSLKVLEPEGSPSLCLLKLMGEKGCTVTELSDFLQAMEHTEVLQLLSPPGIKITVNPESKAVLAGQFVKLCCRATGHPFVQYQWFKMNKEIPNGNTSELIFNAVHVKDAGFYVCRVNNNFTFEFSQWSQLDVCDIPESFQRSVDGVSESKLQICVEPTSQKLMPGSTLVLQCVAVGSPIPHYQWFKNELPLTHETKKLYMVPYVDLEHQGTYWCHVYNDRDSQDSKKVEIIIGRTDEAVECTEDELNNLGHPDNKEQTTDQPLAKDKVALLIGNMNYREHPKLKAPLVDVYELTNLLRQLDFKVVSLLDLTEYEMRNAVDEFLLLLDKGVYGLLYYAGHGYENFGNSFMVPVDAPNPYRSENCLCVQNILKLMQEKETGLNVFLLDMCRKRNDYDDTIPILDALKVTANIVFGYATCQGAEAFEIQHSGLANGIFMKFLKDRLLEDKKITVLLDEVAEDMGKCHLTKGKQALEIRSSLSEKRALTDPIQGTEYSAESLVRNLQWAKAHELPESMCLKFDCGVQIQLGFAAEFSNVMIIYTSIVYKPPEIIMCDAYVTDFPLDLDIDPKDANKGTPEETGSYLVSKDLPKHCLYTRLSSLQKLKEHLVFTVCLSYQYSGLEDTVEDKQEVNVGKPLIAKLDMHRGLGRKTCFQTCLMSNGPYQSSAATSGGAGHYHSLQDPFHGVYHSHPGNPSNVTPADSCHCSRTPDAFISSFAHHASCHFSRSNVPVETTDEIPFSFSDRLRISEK
The test is described as follows: MALT-1 Fluorogenic Peptide Cleavage Assay (MALT1 inhibition assay). The class given is biochemical. Conditions: Avi-tagged FL MALT-1, Ac-LRSR-AMC peptide substrate, 30 min pre-incubation, 90 min reaction. The method, boiled down: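 IC50 from sigmoidal fits of % inhibition, with fluorescence (ex 342, em 441 nm) from AMC released from the quenched LRSR peptide after 90 min at room temperature. Full-length Avi-tagged MALT1 saw compound for 30 min first; final DMSO 2%.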

Setting [1] is: Jurkat cells, 1 hr compound incubation, aCD3/aCD28/PMA stimulation 4 hr, One-Glo readout.

Turning to `Cc1cc(NS(=O)(=O)c2ccc(-n3cc(C(F)(F)F)cn3)nc2)c2c(cnn2C)c1` [Example I-71, N-(1,5-Dimethyl-1H-Indazol-7-yl)-6-(4-(Trifluoromethyl)-1H-Pyrazol-1-yl) Pyridine-3-Sulfonamide], the values for the IC50 with NF-kB (setting [1]) and against MALT1 were less than 400 nM and 1000 to 2500 nM, respectively.
On to `COc1cc(NS(=O)(=O)c2ccc(-n3cc(C(F)(F)F)cn3)nc2)c2c(cnn2C)c1` [Example I-72, N-(5-Methoxy-1-Methylindazol-7-yl)-6-[4-(Trifluoromethyl)Pyrazol-1-Yl]Pyridine-3-Sulfonamide], for which the IC50 – broadly, the concentration that gives 50% inhibition – is less than 400 nM with NF-kB (setting [1]) and 1000 to 2500 nM on MALT1.
On the same counts, the results for `Cn1ncc2cc(F)cc(NS(=O)(=O)c3ccc(-n4cc(C(F)(F)F)cn4)nc3)c21` [Example I-73, N-(5-Fluoro-1-Methylindazol-7-yl)-6-[4-(Trifluoromethyl)Pyrazol-1-Yl]Pyridine-3-Sulfonamide] are 400 to 1000 nM and 400 to 1000 nM.
For `COc1ncc2cnn(C)c2c1NS(=O)(=O)c1ccc(-n2cc(C(F)(F)F)cn2)nc1` [Example I-74, N-(6-methoxy-1-methyl-1H-pyrazolo[4,3-c]pyridin-7-yl)-6-(4-(trifluoromethyl)-1H-pyrazol-1-yl)pyridine-3-sulfonamide], the IC50 with NF-kB and against MALT1 was less than 400 nM each time.
With `[2H]C([2H])([2H])n1ncc2ccc(OC)c(NS(=O)(=O)c3ccc(-n4cc(C(F)(F)F)cn4)nc3)c21` [Example I-75, N-(6-Methoxy-1-(Methyl-D3)-1H-Indazol-7-yl)-6-(4-(Trifluoromethyl)-1H-Pyrazol-1-yl)Pyridine-3-Sulfonamide], the IC50 in the test on NF-kB (setting [1]) and on MALT1 was less than 400 nM throughout.
On to `Cn1ncc2cccc(NS(=O)(=O)c3ccc(-c4cc5ccccc5[nH]4)nc3)c21` [Example I-76, 6-(1H-Indol-2-yl)-N-(1-Methyl-1H-Indazol-7-yl)Pyridine-3-Sulfonamide], for which the IC50 in the test with NF-kB (setting [1]) is less than 400 nM; against MALT1 it was greater than 2500 nM.
Turning to `Cn1ncc2cccc(NS(=O)(=O)c3ccc(-c4cc5cnccc5[nH]4)nc3)c21` [Example I-77, N-(1-Methyl-1H-Indazol-7-yl)-6-(1H-Pyrrolo[3,2-C]Pyridin-2-yl)Pyridine-3-Sulfonamide], the IC50 in the test on NF-kB (setting [1]) and against MALT1 was greater than 2500 nM in each case.
In the case of `Cn1ncc2cccc(NS(=O)(=O)c3ccc(-c4cc[nH]c4)nc3)c21` [Example I-79, N-(1-Methyl-1H-Indazol-7-yl)-6-(1H-Pyrrol-3-yl)Pyridine-3-Sulfonamide], the IC50 in the test with NF-kB (setting [1]) was 1000 to 2500 nM; against MALT1, greater than 2500 nM.
Take `Cn1ncc2cccc(NS(=O)(=O)c3ccc(-c4ccc[nH]4)nc3)c21` [Example I-80, N-(1-Methyl-1H-Indazol-7-yl)-6-(1H-Pyrrol-2-yl)Pyridine-3-Sulfonamide]: the IC50 in the test on NF-kB (setting [1]) is 1000 to 2500 nM; at MALT1, greater than 2500 nM.
On the same counts, the results for `Cn1ncc2cccc(NS(=O)(=O)c3ccc(-c4ccn[nH]4)nc3)c21` [Example I-81, N-(1-Methyl-1H-Indazol-7-yl)-6-(1H-Pyrazol-5-yl)Pyridine-3-Sulfonamide] are 400 to 1000 nM and greater than 2500 nM.
Taken in the same sequence, the figures for `Cn1nccc1-c1ccc(S(=O)(=O)Nc2cccc3cnn(C)c23)cn1` [Example I-82, N-(1-Methyl-1H-Indazol-7-yl)-6-(1-Methyl-1H-Pyrazol-5-yl)Pyridine-3-Sulfonamide] were 400 to 1000 nM and greater than 2500 nM.
Taken in the same sequence, the figures for `Cc1cc(-c2ccc(S(=O)(=O)Nc3cccc4cnn(C)c34)cn2)[nH]n1` [Example I-83, N-(1-Methyl-1H-Indazol-7-yl)-6-(3-Methyl-1H-Pyrazol-5-yl)Pyridine-3-Sulfonamide] were less than 400 nM and greater than 2500 nM.
`Cn1ncc2cccc(NS(=O)(=O)c3ccc(-c4cc(C(F)(F)F)n[nH]4)nc3)c21` [Example I-84, N-(1-Methyl-1H-Indazol-7-yl)-6-(3-(Trifluoromethyl)-1H-Pyrazol-5-yl)Pyridine-3-Sulfonamide]: the values for the half-maximal inhibitory concentration (IC50) in the test on NF-kB (setting [1]) and against MALT1 were less than 400 nM and 400 to 1000 nM, respectively.
As for `Cn1ncc2cccc(NS(=O)(=O)c3ccc(-c4c[nH]nc4C(F)(F)F)nc3)c21` [Example I-85, N-(1-Methyl-1H-Indazol-7-yl)-6-(3-(Trifluoromethyl)-1H-Pyrazol-4-yl)Pyridine-3-Sulfonamide], the results for the IC50 with NF-kB (setting [1]) and at MALT1 were less than 400 nM and greater than 2500 nM, respectively.
On the same counts, the results for `Cn1ncc2cccc(NS(=O)(=O)c3ccc(-c4cnn(C(F)F)c4)nc3)c21` [Example I-86, 6-(1-(Difluoromethyl)-1H-Pyrazol-4-yl)-N-(1-Methyl-1H-Indazol-7-yl)Pyridine-3-Sulfonamide] are less than 400 nM and greater than 2500 nM.
On the same counts, the results for `Cc1nn(C)cc1-c1ccc(S(=O)(=O)Nc2cccc3cnn(C)c23)cn1` [Example I-87, 6-(1,3-Dimethyl-1H-Pyrazol-4-yl)-N-(1-Methyl-1H-Indazol-7-yl)Pyridine-3-Sulfonamide] are less than 400 nM and greater than 2500 nM.
Taken in the same sequence, the figures for `Cc1c(-c2ccc(S(=O)(=O)Nc3cccc4cnn(C)c34)cn2)cnn1C` [Example I-88, 6-(1,5-Dimethyl-1H-Pyrazol-4-yl)-N-(1-Methyl-1H-Indazol-7-yl)Pyridine-3-Sulfonamide] were less than 400 nM and greater than 2500 nM.
On to `Cc1nn(C)c(C)c1-c1ccc(S(=O)(=O)Nc2cccc3cnn(C)c23)cn1` [Example I-89, N-(1-Methyl-1H-Indazol-7-yl)-6-(1,3,5-Trimethyl-1H-Pyrazol-4-yl)Pyridine-3-Sulfonamide], for which the IC50 with NF-kB (setting [1]) was less than 400 nM; on MALT1, greater than 2500 nM.
For the compound `Cn1cncc1-c1ccc(S(=O)(=O)Nc2cccc3cnn(C)c23)cn1` [Example I-90, 6-(1-Methyl-1H-Imidazol-5-yl)-N-(1-Methyl-1H-Indazol-7-yl)Pyridine-3-Sulfonamide], the IC50 was 400 to 1000 nM in the test on NF-kB (setting [1]) and greater than 2500 nM on MALT1.
On the same counts, the results for `Cc1cc(-c2ccc(S(=O)(=O)Nc3cccc4cnn(C)c34)cn2)on1` [Example I-98, N-(1-Methyl-1H-Indazol-7-yl)-6-(3-Methylisoxazol-5-yl)Pyridine-3-Sulfonamide] are less than 400 nM and greater than 2500 nM.
On the same counts, the results for `Cn1ncc2cccc(NS(=O)(=O)c3ccc(-c4cncs4)nc3)c21` [Example I-101, N-(1-Methyl-1H-Indazol-7-yl)-6-(Thiazol-5-yl)Pyridine-3-Sulfonamide] are less than 400 nM and less than 400 nM.
On the same counts, the results for `Cc1nc(C)c(-c2ccc(S(=O)(=O)Nc3cccc4cnn(C)c34)cn2)s1` [Example I-103, 6-(2,4-Dimethylthiazol-5-yl)-N-(1-Methyl-1H-Indazol-7-yl)Pyridine-3-Sulfonamide] are less than 400 nM and 400 to 1000 nM.
As for `COc1ccc2cnn(C)c2c1N(C)S(=O)(=O)c1ccc(-c2cc(C(F)(F)F)nn2C)nc1` [Example I-104, N-(6-Methoxy-1-Methyl-1H-Indazol-7-yl)-N-Methyl-6-(1-Methyl-3-(Trifluoromethyl)-1H-Pyrazol-5-yl)Pyridine-3-Sulfonamide], the IC50 in the test with NF-kB (setting [1]) and against MALT1 was less than 400 nM throughout.
`Cn1ncc2cccc(NS(=O)(=O)c3ccc(-n4cc(C(N)=O)cn4)nc3)c21` [Example I-105, 1-(5-(N-(1-Methyl-1H-Indazol-7-yl)Sulfamoyl)Pyridin-2-yl)-1H-Pyrazole-4-Carboxamide]: the IC50 with NF-kB (setting [1]) and on MALT1 was greater than 2500 nM each time.
For `COc1ccc2[nH]nc(C)c2c1NS(=O)(=O)c1ccc(-n2cc(C(F)(F)F)cn2)nc1` [Example I-106, N-(5-Methoxy-3-Methyl-1H-Indazol-4-yl)-6-(4-(Trifluoromethyl)-1H-Pyrazol-1-yl)Pyridine-3-Sulfonamide], the IC50 in the test on NF-kB (setting [1]) and on MALT1 was less than 400 nM throughout.
As to `Cn1cc(-c2ccc(S(=O)(=O)Nc3cccc4cnn(C)c34)cn2)cn1` [Example I-107, N-(1-Methyl-1H-Indazol-7-yl)-6-(1-Methyl-1H-Pyrazol-4-yl)Pyridine-3-Sulfonamide], the IC50 in the test on NF-kB (setting [1]) was less than 400 nM; at MALT1, greater than 2500 nM.
On the same counts, the results for `COc1cc(-c2ccc(S(=O)(=O)Nc3cccc4cnn(C)c34)cn2)ccn1` [Example I-108, 2′-Methoxy-N-(1-Methyl-1H-Indazol-7-yl)-[2,4′-Bipyridine]-5-Sulfonamide] are less than 400 nM and greater than 2500 nM.
